Measured values taken from article PMC5442318, “Hundreds of dual-stage antimalarial molecules discovered by a functional gametocyte screen” (Nature Communications, 2017).
Where two headings read alike, the source gives them in different places.

Key:
[1] = tested on: P. falciparum stages IV–V gametocytes; experiment: Gametocytocidal ATP-depletion assay (gametocyte ATP bioluminescence); type: cell-based, Plasmodium falciparum
Method: In parallel, the set of confirmed hits from the Pf FGAA screen was cross-compared in the gametocyte ATP-depletion assay, at 2 μM single concentration (Supplementary Data 1). This assay monitors ATP levels as surrogate of gametocyte viability.
‘Viability' of mature gametocytes was determined using the gametocyte ATP bioluminiscence assay. Briefly, stages IV–V gametocyte cultures were double-purified by differential sedimentation followed by magnetic isolation. Then, parasites (50 μl per well containing 12,500 gametocytes) were added to compound pre-dispensed 384-well plates (781091, Greiner Bio-One) and incubated at 37 °C for 48 h (3% O2, 5% CO2 and 92% N2). BacTiter-Glo kit (G8231, Promega) was used to determine the ATP levels of ‘live' parasites according to the manufacturer's instructions. After reagent addition (50 μl per well), luminescence of the plates was measured using a microplate reader (HTS counter Victor, Wallac).

[2] = tested on: P. falciparum asexual blood stages; details: read-out: Pf Asexual blood stages XC50, cited from earlier work
[3] = tested on: P. falciparum stage V female gametocytes; experiment: P. falciparum female gametocyte activation assay (Pf FGAA), 24 h or 48 h preincubation, Pfs25 expression readout; type: cell-based, Plasmodium falciparum NF54; details: mean, read-out: Gametocytes mean Pf FGAA IC50
Method: P. falciparum NF54 (originally isolated from an imported malaria case in the Netherlands in the 1980s; BEI Resources, cat. no. MRA-1000) asexual-stage culture was performed as described by Trager and Jensen[37]. Cultures synchronized at the ring stage were used to start gametocyte cultures (day 0) at 1% parasitaemia and 4% haematocrit in 200 ml final volume using culture bottles (Nalgene 3110-42, Thermo Scientific). Complete culture medium (RPMI 1640 supplemented with 25 mM HEPES, 50 μg ml^−1 hypoxanthine, 2 g l^−1 NaHCO3 and 10% pooled human male type A+ serum) was totally replaced daily for 14 days without fresh erythrocyte addition. Human serum was obtained from Interstate Blood Bank, A^+ serotype; no aspirin 2 h before drawing and no antimalarials 2 weeks before drawing. To ensure a stable temperature at 37 °C, which is crucial for gametocyte production and maturation, pre-warmed medium and a slide warmer (XH-2001, Premiere) were used. Under these conditions, parasitaemia reaches a peak of asexual stages on days 4–5, and the first gametocytes are differentiated in culture on day 6. Sexual-stage development was monitored microscopically by Giemsa-stained thin blood smears at day 7 (mainly asexual stages and stages I to III gametocytes) and day 14 (stages IV and V gametocytes).
Cultures showing mainly stage V gametocytes were purified by differential sedimentation as previously reported. The gametocyte concentration was adjusted to plate 8,000 gametocytes per well (100 μl per well) in 384-well poly-D-lysine coated plates (781946, Greiner Bio-One) containing the compounds to test. […] Female gametocyte activation was then triggered by temperature drop and addition of xanthurenic acid (D120804, Sigma) as previously described. To detect female gametes, monoclonal anti-Pfs25 antibody[38] 4B7 (BEI Resources (formerly MR4), cat. no. MRA-315) conjugated to the Cy3 fluorochrome (GE Healthcare) was added to ookinete medium (RPMI 1640 supplemented with 25 mM HEPES, 50 μg ml^−1 hypoxanthine, 2 g l^−1 NaHCO3, 100 μM xanthurenic acid and 20% human serum) at a final concentration of 0.5 μg ml^−1. Activated cultures were then kept at 26 °C for 24 h protected from light, and image acquisition was performed in the Opera High-Content Screening System (PerkinElmer). Using × 10 air objective, five images per well were taken using 532 nm excitation. Images were analysed with a Columbus image data storage and analysis system (PerkinElmer) based on a script specifically designed for this assay that considers size, roundness and intensity of fluorescence of the female activated gametocytes.
Compounds were dissolved in 100% DMSO and dispensed in the 384-well plates using an Echo-CRS liquid handler. Compounds were tested in 2–3 independent experiments. […] Based on that, Z′ factor was calculated for each plate and only those ones with values higher than 0.4 were considered acceptable for data analysis.
Assay performance statistics, such as signal to background ratio, Z′ and robust 3 s.d. activity cut-off were calculated using templates in ActivityBase XE (IDBS, Guilford, Surrey, UK). Hit population analysis and visualization were conducted using Spotfire DecisionSite (Spotfire, Inc., Somerville, MA, USA). The pIC50 (−log IC50) values were obtained using the ActivityBase XE nonlinear regression function in the full curve analysis bundle.

HepG2 cells = experiment: HepG2 cytotoxicity assay; type: cell-based
Method: After incubation, plates and CellTiter-Glo Reagent (G7571, Promega) were equilibrated at room temperature for 30 min before proceeding to develop the luminescent signal. Using a Multidrop combi dispenser, 25 μl per well of the signal developer were added to the plates and after 10 min at room temperature for stabilization, plates were read on the ViewLux system (Perkin Elmer).

[4] = TCAMS asexual blood stage data, ref 1 (Gamo, F. J. et al., Nature 465, 305-310, 2010)
[5] = P. falciparum female gametocytes
[6] = TCAMS data, ref 1 (Gamo et al., 2010)
[7] = P. falciparum female gametocyte activation assay

SMILES	IC50 [3]	IC50 [3, 7]	Gametocytes mean ATP inhibition at 2µM [1]	IC50 [2, 4]	IC50 [3, 5]	HepG2 cells mean TOX50 (HepG2 cells; HepG2 cells; mean)	Gametocytes mean ATP inhibition at 2µM (%) [1]	IC50 [2, 6]	HepG2 cells mean TOX50 (HepG2 cells; mean)	HepG2 cells mean TOX50 (HepG2 cells; mean; HepG2 cells)
C=CCN(C(=O)c1ccc(Cl)c([N+](=O)[O-])c1)c1nc(-c2ccccc2)cs1 [TCMDC-124436]	–	–	100.64%	400 nM	130 nM	>100 µM	–	–	–	–
CCOc1cc(CNCCCCCCNCc2cc(OCC)c(OCC)c3ccccc23)c2ccccc2c1OCC.CS(=O)(=O)O [TCMDC-137939]	1780 nM	–	–	–	–	–	5.51%	280 nM	2.00 µM	–
CCCN(CC1CC1)c1ncc(-c2cccc(CNCCC3CCCN3C)c2)cn1 (centres unmarked) [TCMDC-133142]	–	–	6.70%	750 nM	2180 nM	3.09 µM	–	–	–	–
COc1ccc2nc(N=C3NC4(c5ccccc5)NC(=Nc5nc6ccc(OC)cc6[nH]5)NC4(c4ccccc4)N3)[nH]c2c1.O=C(O)C(F)(F)F (centres unmarked) [TCMDC-139632]	120 nM	–	–	–	–	–	67.82%	200 nM	62.72 µM	–
CCC1CN2CCc3cc(OC)c(OC)cc3C2CC1CC1NCCc2cc(OC)c(OC)cc21 (centres unmarked) [TCMDC-125849]	–	–	60.00%	150 nM	1820 nM	2.24 µM	–	–	–	–
COc1cc2ccccc2c(CNCCCCCCNCc2c(OC)c(OC)cc3ccccc23)c1OC.CS(=O)(=O)O [TCMDC-137795]	670 nM	–	–	–	–	–	13.93%	1110 nM	4.62 µM	–
CC(C)c1ccc(CN2CCC(CNC(=O)c3cc(-c4ccc(N(C)C)cc4)cs3)C2)cc1.O=C(O)C(F)(F)F (centres unmarked) [TCMDC-134440]	–	–	-6.60%	1250 nM	710 nM	5.85 µM	–	–	–	–
O=C(Nc1ccc(Cl)cc1)c1cc(Cl)cc2nc(C(F)(F)F)[nH]c12 [TCMDC-141586]	–	1700 nM	39.06%	130 nM	–	–	–	–	–	2.82 µM
CC(C)Oc1ccc2ccccc2c1CNCCCCCCNCc1c(OC(C)C)ccc2ccccc12.CS(=O)(=O)O [TCMDC-137965]	950 nM	–	–	–	–	–	37.88%	610 nM	1.91 µM	–
SC(=Nc1ccc(Cl)c(Cl)c1)NN=Cc1ccccn1 [TCMDC-125522]	–	–	64.79%	770 nM	80 nM	3.47 µM	–	–	–	–
NCc1ccc(CNCc2ccc(-c3ccc(-c4nc5cc(C(F)(F)F)ccc5[nH]4)s3)cc2)cc1.O=C(O)C(F)(F)F [TCMDC-132814]	–	–	6.11%	160 nM	1020 nM	8.32 µM	–	–	–	–
NCc1ccc(CNCc2cccc(-c3ccc(-c4nc5cc(C(F)(F)F)ccc5[nH]4)cc3)c2)cc1.O=C(O)C(F)(F)F [TCMDC-132811]	–	–	-6.09%	260 nM	830 nM	14.65 µM	–	–	–	–
Cn1c(Nc2cc(C(C)(C)C)on2)nc2cc(Nc3ccnc(Nc4cccc(S(=O)(=O)N5CCOCC5)c4)n3)ccc21 [TCMDC-134098]	–	–	17.18%	530 nM	1190 nM	8.13 µM	–	–	–	–
Cc1c(Cn2ncc(N3CCC(N)CC3)c(Cl)c2=O)cccc1NC(=O)Nc1ccc(-c2ccccc2)cc1.O=C(O)C(F)(F)F [TCMDC-141931]	–	1090 nM	22.47%	700 nM	–	–	–	–	–	22.90 µM
COc1ccc(CNC2Cc3ccccc3C2)cc1-c1ccc(S(=O)(=O)NCCN2CCCC2)s1.O=C(O)C(F)(F)F [TCMDC-132258]	–	–	59.91%	190 nM	1390 nM	5.31 µM	–	–	–	–
CCCOc1ccc2ccccc2c1CNCCCCCCNCc1c(OCCC)ccc2ccccc12.CS(=O)(=O)O [TCMDC-137966]	1030 nM	–	–	–	–	–	42.35%	790 nM	2.00 µM	–
CCc1ccccc1-c1csc(C(=O)NCC2CCN(Cc3ccc(C(C)(C)C)cc3)C2)c1.O=C(O)C(F)(F)F (centres unmarked) [TCMDC-134448]	–	–	-14.62%	1150 nM	1200 nM	7.67 µM	–	–	–	–

Further lines, with some results ahead:

IC50 [3]	IC50 [3, 7]	SMILES	Gametocytes mean ATP inhibition at 2µM [1]	IC50 [2, 4]	IC50 [3, 5]	HepG2 cells mean TOX50 (HepG2 cells; HepG2 cells; mean)	Gametocytes mean ATP inhibition at 2µM (%) [1]	IC50 [2, 6]	HepG2 cells mean TOX50 (HepG2 cells; mean)	HepG2 cells mean TOX50 (HepG2 cells; mean; HepG2 cells)
100 nM	–	COc1cc2nc(N3CCC(CNCc4ccc(-c5ccc(C(F)(F)F)cc5)cc4)CC3)nc(N)c2cc1OC [TCMDC-138757]	–	–	–	–	99.68%	90 nM	1.43 µM	–
1130 nM	–	COc1ccccc1-c1nc2c(ccc3nc(N)nc(N)c32)[nH]1 [TCMDC-137976]	–	–	–	–	85.21%	180 nM	2.87 µM	–
–	870 nM	CCN(CC)CCN(Cc1ccc(-c2ccc(C(F)(F)F)cc2)cc1)C(=O)Cn1cc(Cc2cnn(C)c2)c(=O)nc1/C=C/c1cccc(F)c1F [TCMDC-140964]	69.60%	960 nM	–	–	–	–	–	9.69 µM
2010 nM	–	Nc1nc(N)c2c(ccc3c2ccn3Cc2ccc(-c3ccccc3)cc2)n1 [TCMDC-137813]	–	–	–	–	26.93%	50 nM	1.16 µM	–
850 nM	–	COc1cc2nc(N3CCC(CNC(=O)c4ccc(-c5ccc(C(F)(F)F)cc5)cc4)CC3)nc(N)c2cc1OC [TCMDC-138716]	–	–	–	–	21.96%	130 nM	4.92 µM	–
1800 nM	–	C=C[C@H]1CN(CCCCCCC)CC[C@H]1CCNc1ccnc2ccc(OC)cc12 [TCMDC-139204]	–	–	–	–	31.13%	60 nM	2.24 µM	–
1680 nM	–	COc1cc2nc(N3CCC(CNC(=O)c4ccc(-c5ccc(-c6noc(C)n6)cc5C)cc4)CC3)nc(N)c2cc1OC [TCMDC-138155]	–	–	–	–	5.13%	220 nM	7.62 µM	–
980 nM	–	CN1CCN(CCCNCc2cccc(Nc3nccc(Nc4ccc(Oc5ccccc5)cc4)n3)c2)CC1 [TCMDC-138616]	–	–	–	–	13.07%	760 nM	4.68 µM	–
1270 nM	–	CC(CNC(=N)c1cccc(C(=N)NCC(C)Oc2cccc(C3CCCCC3)c2)n1)Oc1cccc(C2CCCCC2)c1.Cl (centres unmarked) [TCMDC-137455]	–	–	–	–	92.56%	920 nM	2.16 µM	–
